From the NIST ThermoML archive (doi:10.1021/je500696p)
Numbers after ± are expanded uncertainties.

What was measured:
[1] = xn = mol fraction of the nth substance listed; details: 100 kPa, Liquid, Vibrating tube method
[2] = excess molar enthalpy (molar enthalpy of mixing); xn = mol fraction of the nth substance listed; details: 100 kPa, Liquid, Calvet calorimetry

CCCC[N+](C)(C)C.O=S(=O)([N-]S(=O)(=O)C(F)(F)F)C(F)(F)F [butyltrimethylammonium bis(trifluoromethylsulfonyl)imide] + CCO
Details | excess molar enthalpy [kcal/mol] | mass density [kg/m3]
[1], 293.15 K, x2 = 0 | – | 1397.1 ± 5.6
[1], 293.15 K, x2 = 0.1284 | – | 1379.5 ± 5.5
[1], 293.15 K, x2 = 0.2585 | – | 1357.1 ± 5.4
[1], 293.15 K, x2 = 0.3814 | – | 1329.7 ± 5.3
[1], 293.15 K, x2 = 0.5031 | – | 1293.9 ± 5.2
[1], 293.15 K, x2 = 0.6487 | – | 1232.1 ± 5
[1], 293.15 K, x2 = 0.7823 | – | 1142 ± 4.6
[1], 293.15 K, x2 = 0.8561 | – | 1066.3 ± 4.3
[1], 293.15 K, x2 = 0.8763 | – | 1040.6 ± 4.2
[1], 293.15 K, x2 = 0.9039 | – | 1000.1 ± 4
[1], 293.15 K, x2 = 0.95 | – | 916.4 ± 3.7
[1], 293.15 K, x2 = 0.9745 | – | 860.2 ± 3.4
[1], 295.15 K, x2 = 0 | – | 1395.3 ± 5.6
[1], 295.15 K, x2 = 0.1284 | – | 1377.7 ± 5.5
[1], 295.15 K, x2 = 0.2585 | – | 1355.3 ± 5.4
[1], 295.15 K, x2 = 0.3814 | – | 1327.8 ± 5.3
[1], 295.15 K, x2 = 0.5031 | – | 1292 ± 5.2
[1], 295.15 K, x2 = 0.6487 | – | 1230.3 ± 4.9
[1], 295.15 K, x2 = 0.7823 | – | 1140.1 ± 4.6
[1], 295.15 K, x2 = 0.8561 | – | 1064.5 ± 4.3
[1], 295.15 K, x2 = 0.8763 | – | 1038.8 ± 4.2
[1], 295.15 K, x2 = 0.9039 | – | 998.3 ± 4
[1], 295.15 K, x2 = 0.95 | – | 914.6 ± 3.7
[1], 295.15 K, x2 = 0.9745 | – | 858.4 ± 3.4
[1], 298.15 K, x2 = 0 | – | 1392.7 ± 5.6
[1], 298.15 K, x2 = 0.1284 | – | 1375.1 ± 5.5
[1], 298.15 K, x2 = 0.2585 | – | 1352.6 ± 5.4
[1], 298.15 K, x2 = 0.3814 | – | 1325.1 ± 5.3
[1], 298.15 K, x2 = 0.5031 | – | 1289.3 ± 5.2
[1], 298.15 K, x2 = 0.6487 | – | 1227.5 ± 4.9
[1], 298.15 K, x2 = 0.7823 | – | 1137.3 ± 4.6
[1], 298.15 K, x2 = 0.8561 | – | 1061.7 ± 4.3
[1], 298.15 K, x2 = 0.8763 | – | 1036 ± 4.2
[1], 298.15 K, x2 = 0.9039 | – | 995.6 ± 4
[1], 298.15 K, x2 = 0.95 | – | 911.9 ± 3.7
[1], 298.15 K, x2 = 0.9745 | – | 855.8 ± 3.4
[1], 303.15 K, x2 = 0 | – | 1388.3 ± 5.6
[1], 303.15 K, x2 = 0.1284 | – | 1370.6 ± 5.5
[1], 303.15 K, x2 = 0.2585 | – | 1348.1 ± 5.4
[1], 303.15 K, x2 = 0.3814 | – | 1320.6 ± 5.3
[1], 303.15 K, x2 = 0.5031 | – | 1284.7 ± 5.2
[1], 303.15 K, x2 = 0.6487 | – | 1222.8 ± 4.9
[1], 303.15 K, x2 = 0.7823 | – | 1132.7 ± 4.5
[1], 303.15 K, x2 = 0.8561 | – | 1057.1 ± 4.2
[1], 303.15 K, x2 = 0.8763 | – | 1031.4 ± 4.1
[1], 303.15 K, x2 = 0.9039 | – | 991 ± 4
[1], 303.15 K, x2 = 0.95 | – | 907.4 ± 3.6
[1], 303.15 K, x2 = 0.9745 | – | 851.4 ± 3.4
[1], 308.15 K, x2 = 0 | – | 1384 ± 5.6
[1], 308.15 K, x2 = 0.1284 | – | 1366.2 ± 5.5
[1], 308.15 K, x2 = 0.2585 | – | 1343.7 ± 5.4
[1], 308.15 K, x2 = 0.3814 | – | 1316.1 ± 5.3
[1], 308.15 K, x2 = 0.5031 | – | 1280.1 ± 5.1
[1], 308.15 K, x2 = 0.6487 | – | 1218.2 ± 4.9
[1], 308.15 K, x2 = 0.7823 | – | 1128 ± 4.5
[1], 308.15 K, x2 = 0.8561 | – | 1052.4 ± 4.2
[1], 308.15 K, x2 = 0.8763 | – | 1026.8 ± 4.1
[1], 308.15 K, x2 = 0.9039 | – | 986.4 ± 4
[1], 308.15 K, x2 = 0.95 | – | 902.9 ± 3.6
[1], 308.15 K, x2 = 0.9745 | – | 846.9 ± 3.4
[1], 313.15 K, x2 = 0 | – | 1379.6 ± 5.5
[1], 313.15 K, x2 = 0.1284 | – | 1361.8 ± 5.5
[1], 313.15 K, x2 = 0.2585 | – | 1339.2 ± 5.4
[1], 313.15 K, x2 = 0.3814 | – | 1311.6 ± 5.3
[1], 313.15 K, x2 = 0.5031 | – | 1275.6 ± 5.1
[1], 313.15 K, x2 = 0.6487 | – | 1213.6 ± 4.9
[1], 313.15 K, x2 = 0.7823 | – | 1123.3 ± 4.5
[1], 313.15 K, x2 = 0.8561 | – | 1047.8 ± 4.2
[1], 313.15 K, x2 = 0.8763 | – | 1022.1 ± 4.1
[1], 313.15 K, x2 = 0.9039 | – | 981.8 ± 3.9
[1], 313.15 K, x2 = 0.95 | – | 898.4 ± 3.6
[1], 313.15 K, x2 = 0.9745 | – | 842.5 ± 3.4
[1], 318.15 K, x2 = 0 | – | 1375.2 ± 5.5
[1], 318.15 K, x2 = 0.1284 | – | 1357.4 ± 5.4
[1], 318.15 K, x2 = 0.2585 | – | 1334.8 ± 5.4
[1], 318.15 K, x2 = 0.3814 | – | 1307.1 ± 5.2
[1], 318.15 K, x2 = 0.5031 | – | 1271 ± 5.1
[1], 318.15 K, x2 = 0.6487 | – | 1209 ± 4.8
[1], 318.15 K, x2 = 0.7823 | – | 1118.6 ± 4.5
[1], 318.15 K, x2 = 0.8561 | – | 1043.1 ± 4.2
[1], 318.15 K, x2 = 0.8763 | – | 1017.4 ± 4.1
[1], 318.15 K, x2 = 0.9039 | – | 977.1 ± 3.9
[1], 318.15 K, x2 = 0.95 | – | 893.8 ± 3.6
[1], 318.15 K, x2 = 0.9745 | – | 838 ± 3.4
[1], 323.15 K, x2 = 0 | – | 1370.9 ± 5.5
[1], 323.15 K, x2 = 0.1284 | – | 1353.1 ± 5.4
[1], 323.15 K, x2 = 0.2585 | – | 1330.4 ± 5.3
[1], 323.15 K, x2 = 0.3814 | – | 1302.6 ± 5.2
[1], 323.15 K, x2 = 0.5031 | – | 1266.5 ± 5.1
[1], 323.15 K, x2 = 0.6487 | – | 1204.4 ± 4.8
[1], 323.15 K, x2 = 0.7823 | – | 1114 ± 4.5
[1], 323.15 K, x2 = 0.8561 | – | 1038.4 ± 4.2
[1], 323.15 K, x2 = 0.8763 | – | 1012.7 ± 4.1
[1], 323.15 K, x2 = 0.9039 | – | 972.4 ± 3.9
[1], 323.15 K, x2 = 0.95 | – | 889.2 ± 3.6
[1], 323.15 K, x2 = 0.9745 | – | 833.4 ± 3.3
[1], 328.15 K, x2 = 0 | – | 1366.6 ± 5.5
[1], 328.15 K, x2 = 0.1284 | – | 1348.7 ± 5.4
[1], 328.15 K, x2 = 0.2585 | – | 1325.9 ± 5.3
[1], 328.15 K, x2 = 0.3814 | – | 1298.1 ± 5.2
[1], 328.15 K, x2 = 0.5031 | – | 1261.9 ± 5.1
[1], 328.15 K, x2 = 0.6487 | – | 1199.7 ± 4.8
[1], 328.15 K, x2 = 0.7823 | – | 1109.2 ± 4.4
[1], 328.15 K, x2 = 0.8561 | – | 1033.7 ± 4.1
[1], 328.15 K, x2 = 0.8763 | – | 1008 ± 4
[1], 328.15 K, x2 = 0.9039 | – | 967.7 ± 3.9
[1], 328.15 K, x2 = 0.95 | – | 884.5 ± 3.5
[1], 328.15 K, x2 = 0.9745 | – | 828.8 ± 3.3
[1], 333.15 K, x2 = 0 | – | 1362.3 ± 5.5
[1], 333.15 K, x2 = 0.1284 | – | 1344.3 ± 5.4
[1], 333.15 K, x2 = 0.2585 | – | 1321.5 ± 5.3
[1], 333.15 K, x2 = 0.3814 | – | 1293.7 ± 5.2
[1], 333.15 K, x2 = 0.5031 | – | 1257.4 ± 5
[1], 333.15 K, x2 = 0.6487 | – | 1195.1 ± 4.8
[1], 333.15 K, x2 = 0.7823 | – | 1104.5 ± 4.4
[1], 333.15 K, x2 = 0.8561 | – | 1028.9 ± 4.1
[1], 333.15 K, x2 = 0.8763 | – | 1003.3 ± 4
[1], 333.15 K, x2 = 0.9039 | – | 963 ± 3.9
[1], 333.15 K, x2 = 0.95 | – | 879.8 ± 3.5
[1], 333.15 K, x2 = 0.9745 | – | 824.2 ± 3.3
[2], 308.15 K, x2 = 0.1229 | 0.203 ± 0.00837 | –
[2], 308.15 K, x2 = 0.2546 | 0.389 ± 0.0158 | –
[2], 308.15 K, x2 = 0.2623 | 0.396 ± 0.016 | –
[2], 308.15 K, x2 = 0.2752 | 0.411 ± 0.0167 | –
[2], 308.15 K, x2 = 0.3943 | 0.51 ± 0.0208 | –
[2], 308.15 K, x2 = 0.5084 | 0.559 ± 0.0227 | –
[2], 308.15 K, x2 = 0.5133 | 0.551 ± 0.0225 | –
[2], 308.15 K, x2 = 0.5408 | 0.557 ± 0.0227 | –
[2], 308.15 K, x2 = 0.6267 | 0.544 ± 0.0222 | –
[2], 308.15 K, x2 = 0.7252 | 0.509 ± 0.0208 | –
[2], 308.15 K, x2 = 0.7354 | 0.503 ± 0.0206 | –
[2], 308.15 K, x2 = 0.7659 | 0.467 ± 0.0191 | –
[2], 308.15 K, x2 = 0.8645 | 0.352 ± 0.0143 | –
[2], 313.15 K, x2 = 0.113 | 0.187 ± 0.00765 | –
[2], 313.15 K, x2 = 0.2393 | 0.374 ± 0.0153 | –
[2], 313.15 K, x2 = 0.2549 | 0.385 ± 0.0158 | –
[2], 313.15 K, x2 = 0.3933 | 0.518 ± 0.021 | –
[2], 313.15 K, x2 = 0.4936 | 0.569 ± 0.0232 | –
[2], 313.15 K, x2 = 0.4959 | 0.567 ± 0.0232 | –
[2], 313.15 K, x2 = 0.499 | 0.568 ± 0.0232 | –
[2], 313.15 K, x2 = 0.6245 | 0.564 ± 0.0229 | –
[2], 313.15 K, x2 = 0.7406 | 0.507 ± 0.0206 | –
[2], 313.15 K, x2 = 0.8666 | 0.369 ± 0.0151 | –
[2], 323.15 K, x2 = 0.1187 | 0.185 ± 0.00765 | –
[2], 323.15 K, x2 = 0.2569 | 0.406 ± 0.0165 | –
[2], 323.15 K, x2 = 0.2694 | 0.422 ± 0.0172 | –
[2], 323.15 K, x2 = 0.3969 | 0.538 ± 0.022 | –
[2], 323.15 K, x2 = 0.527 | 0.6 ± 0.0239 | –
[2], 323.15 K, x2 = 0.5431 | 0.611 ± 0.0239 | –
[2], 323.15 K, x2 = 0.6214 | 0.598 ± 0.0239 | –
[2], 323.15 K, x2 = 0.7499 | 0.548 ± 0.0222 | –
[2], 323.15 K, x2 = 0.8707 | 0.413 ± 0.0167 | –
